Values joined by “and” are separate entries in the source; they are usually repeats but may differ in a detail not shown here. Identical values can stand only once. Inconclusive results and toxic doses are left out.

The test concerns BDF1 mice, P388 leukemia ip, median survival T/C. Nature of the test: NCI In Vivo Anticancer Drug Screen. Data for tumor model P388 Leukemia (intraperitoneal) in B6D2F1 (BDF1) mice. Conditions: endpoint: median survival time, higher = longer survival. A digest of the protocol:
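Mice carrying the transplantable tumour receive compound or vehicle. Survival is followed in each arm, and the treated measure is divided by the vehicle measure.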

The mark [1] stands for this setting: dose: 100.0 mg/kg/injection, schedule: Q01DX009 (ip), vehicle: Klucel (hydroxypropylcellulose) (HPC).
Where [2] appears, read: dose: 200.0 mg/kg/injection, schedule: Q01DX009 (ip), vehicle: Klucel (hydroxypropylcellulose) (HPC).
Setting [3] is: dose: 1.56 mg/kg/injection, schedule: Q01DX009 (ip), vehicle: saline.
The mark [4] stands for this setting: dose: 6.25 mg/kg/injection, schedule: Q01DX009 (ip), vehicle: saline.
Where [5] appears, read: dose: 12.5 mg/kg/injection, schedule: Q01DX009 (ip), vehicle: saline.
Where [6] appears, read: dose: 100.0 mg/kg/injection, schedule: Q04DX003 (ip), vehicle: Klucel (hydroxypropylcellulose) (HPC).
Setting [7] is: dose: 200.0 mg/kg/injection, schedule: Q04DX003 (ip), vehicle: Klucel (hydroxypropylcellulose) (HPC).
Where [8] appears, read: dose: 400.0 mg/kg/injection, schedule: Q04DX003 (ip), vehicle: Klucel (hydroxypropylcellulose) (HPC).
Setting [9] is: dose: 25.0 mg/kg/injection, schedule: Q01DX009 (ip), vehicle: saline.

`CCCC#CC#N`: the T/C is, setting by setting: (dose: 25.0 mg/kg/injection, schedule: Q01DX009 (ip), vehicle: olive oil, sesame oil, peanut oil) 104 % of control; (dose: 50.0 mg/kg/injection, schedule: Q01DX009 (ip), vehicle: olive oil, sesame oil, peanut oil) 91 % of control.

For `C=C1C(=O)OC2C=C(C)C3C(O)CC(C)(O)C3CC12` (configuration not stated), the T/C under setting [1] is 114 % of control and the T/C under setting [2] is 102 % of control.

As for `C1CN1c1nc(N2CC2)nc(N2CC2)n1`, the T/C by setting is: (dose: 0.05 mg/kg/injection, schedule: Q01DX009 (ip), vehicle: saline) 175 % of control; (dose: 0.1 mg/kg/injection, schedule: Q01DX009 (ip), vehicle: saline) 115 % of control; (dose: 0.13 mg/kg/injection, schedule: Q01DX010 (ip), vehicle: saline) 109 % of control; (dose: 0.25 mg/kg/injection, schedule: Q01DX010 (ip), vehicle: saline) 150 % of control; (dose: 0.25 mg/kg/injection, schedule: Q01DX010 (ip), vehicle: water) 190 % of control; (dose: 0.4 mg/kg/injection, schedule: Q01DX009 (ip), vehicle: saline) 159 % of control. Moreover, the T/C (dose: 0.5 mg/kg/injection, schedule: Q01DX009 (ip), vehicle: saline) is 200 % of control; the T/C (dose: 0.5 mg/kg/injection, schedule: Q01DX010 (ip), vehicle: saline) was 272 % of control; the T/C (dose: 0.5 mg/kg/injection, schedule: Q01DX010 (ip), vehicle: water) was 268 % of control; the T/C (dose: 0.75 mg/kg/injection, schedule: Q01DX010 (ip), vehicle: water) is 268 % of control; the T/C (dose: 0.8 mg/kg/injection, schedule: Q01DX009 (ip), vehicle: saline) was 86 % of control.

For the compound `COc1cc(C(=O)N2CC2)cc(OC)c1OC`, the T/C (dose: 3.12 mg/kg/injection, schedule: Q01DX009 (ip), vehicle: water) is 108 % of control; the T/C (dose: 6.25 mg/kg/injection, schedule: Q01DX009 (ip), vehicle: water) is 90 % of control; the T/C (dose: 12.5 mg/kg/injection, schedule: Q01DX009 (ip), vehicle: water) was 99 % of control; the T/C (dose: 25.0 mg/kg/injection, schedule: Q01DX009 (ip), vehicle: water) is 101 % of control; the T/C (dose: 50.0 mg/kg/injection, schedule: Q01DX009 (ip), vehicle: water) was 96 % of control.

For `O=P(NC1CCCC1)(N1CC1)N1CC1`, the T/C is, setting by setting: under setting [3], 116 % of control; under setting [4], 187 % of control and 220 % of control; under setting [5], 91 % of control and 104 % of control.

`O=C(c1ccccc1)c1cccc(Cl)c1`: the T/C reads like this: (dose: 50.0 mg/kg/injection, schedule: Q04DX003 (ip), vehicle: Klucel (hydroxypropylcellulose) (HPC)) 104 % of control; under setting [6], 90 % of control; under setting [7], 104 % of control.

Turning to `CC1(Cl)C(=O)NC(=O)C1Cl` (configuration not stated), the T/C (dose: 3.12 mg/kg/injection, schedule: Q04DX003 (ip), vehicle: saline) was 92 % of control; the T/C (dose: 6.25 mg/kg/injection, schedule: Q04DX003 (ip), vehicle: saline) is 95 % of control; the T/C (dose: 12.5 mg/kg/injection, schedule: Q04DX003 (ip), vehicle: saline) was 100 % of control; the T/C (dose: 25.0 mg/kg/injection, schedule: Q04DX003 (ip), vehicle: saline) is 104 % of control; the T/C (dose: 50.0 mg/kg/injection, schedule: Q04DX003 (ip), vehicle: saline) was 104 % of control; the T/C (dose: 100.0 mg/kg/injection, schedule: Q04DX003 (ip), vehicle: saline) is 113 % of control.

As for `CN1CCN(Cc2nc3cccc4c3c([n+]2[O-])-c2ccccc2-4)CC1`, the T/C is 100 % of control (dose: 40.0 mg/kg/injection, schedule: Q06HX032 (ip), vehicle: saline with Tween-80); 107 % of control (dose: 50.0 mg/kg/injection, schedule: Q03HX008 (ip), vehicle: saline with Tween-80); 109 % of control (dose: 50.0 mg/kg/injection, schedule: Q03HX024 (ip), vehicle: saline with Tween-80); 118 % of control (dose: 80.0 mg/kg/injection, schedule: Q01DX009 (ip), vehicle: saline with Tween-80); 120 % of control (dose: 80.0 mg/kg/injection, schedule: Q03HX008 (ip), vehicle: saline with Tween-80); 158 % of control (dose: 100.0 mg/kg/injection, schedule: Q01DX009 (ip), vehicle: saline). For the same compound, the T/C (dose: 100.0 mg/kg/injection, schedule: Q01DX009 (oral), vehicle: saline with Tween-80) is 107 % of control; the T/C (dose: 100.0 mg/kg/injection, schedule: Q01DX Z (ip), vehicle: saline) is 159 % of control; the T/C (dose: 100.0 mg/kg/injection, schedule: Q03HX008 (oral), vehicle: saline with Tween-80) was 105 % of control; the T/C (dose: 100.0 mg/kg/injection, schedule: Q03HX024 (ip), vehicle: saline with Tween-80) was 162 % of control; the T/C (dose: 100.0 mg/kg/injection, schedule: Q08HX009 (oral), vehicle: saline with Tween-80) was 100 % of control; the T/C (dose: 100.0 mg/kg/injection, schedule: Q08HX027 (oral), vehicle: saline with Tween-80) was 120 % of control. Moreover, the T/C was 150 % of control (dose: 150.0 mg/kg/injection, schedule: Q01DX009 (ip), vehicle: saline); 112 % of control (dose: 150.0 mg/kg/injection, schedule: Q01DX009 (oral), vehicle: saline with Tween-80); 99 % of control (dose: 150.0 mg/kg/injection, schedule: Q04DX003 (oral), vehicle: saline with Tween-80); 112 % of control (dose: 150.0 mg/kg/injection, schedule: Q08HX009 (oral), vehicle: saline with Tween-80); 161 % of control (dose: 175.0 mg/kg/injection, schedule: Q08HX027 (oral), vehicle: saline with Tween-80); 110 % of control (dose: 200.0 mg/kg/injection, schedule: Q01DX009 (oral), vehicle: saline with Tween-80). In addition, the T/C by setting is: (dose: 200.0 mg/kg/injection, schedule: Q03HX024 (oral), vehicle: saline with Tween-80) 152 % of control; (dose: 200.0 mg/kg/injection, schedule: Q04DX003 (oral), vehicle: saline with Tween-80) 110 % of control; (dose: 200.0 mg/kg/injection, schedule: Q08HX009 (oral), vehicle: saline with Tween-80) 103 % of control; (dose: 200.0 mg/kg/injection, schedule: Q08HX027 (oral), vehicle: saline with Tween-80) 90 % of control; (dose: 250.0 mg/kg/injection, schedule: Q01DX009 (oral), vehicle: saline with Tween-80) 117 % of control; (dose: 250.0 mg/kg/injection, schedule: Q04DX003 (oral), vehicle: saline with Tween-80) 100 % of control. Moreover, the T/C is, setting by setting: (dose: 250.0 mg/kg/injection, schedule: Q08HX009 (oral), vehicle: saline with Tween-80) 116 % of control; (dose: 300.0 mg/kg/injection, schedule: Q04DX003 (oral), vehicle: saline with Tween-80) 105 % of control.

For the compound `BrC1C(Br)C(Br)C2OC2C1Br` (configuration not stated), the T/C by setting is: under setting [6], 100 % of control; under setting [7], 105 % of control; under setting [8], 100 % of control.

Take `CCCCC(CC)COC(=O)CC(CC(=O)OCC(CC)CCCC)C(=O)OCC(CC)CCCC` (configuration not stated): the T/C is, setting by setting: (dose: 50.0 mg/kg/injection, schedule: Q01DX009 (ip), vehicle: saline with Tween-80) 92 % of control; (dose: 100.0 mg/kg/injection, schedule: Q01DX009 (ip), vehicle: saline with Tween-80) 92 % of control; (dose: 200.0 mg/kg/injection, schedule: Q01DX009 (ip), vehicle: saline with Tween-80) 92 % of control.

For `O=N[O-].[Co].[N-]=C=S.[NH2-].[NH2-].[NH2-].[NH2-]`, the T/C by setting is: under setting [4], 95 % of control; under setting [5], 93 % of control; under setting [9], 112 % of control; (dose: 50.0 mg/kg/injection, schedule: Q04DX003 (ip), vehicle: saline with Tween-80) 120 % of control.

With `COc1ccc(OC(=O)Nc2ccccc2OC)cc1`, the T/C under setting [6] is 91 % of control, the T/C under setting [7] is 91 % of control and the T/C under setting [8] was 87 % of control.

In the case of `COC(=O)C(NC(C)=O)C(=O)OC`, the T/C reads like this: under setting [1], 104 % of control; under setting [2], 92 % of control; (dose: 400.0 mg/kg/injection, schedule: Q01DX009 (ip), vehicle: Klucel (hydroxypropylcellulose) (HPC)) 88 % of control.

For the compound `O=C1NC(c2ccccc2)C(=O)N1CCN(CCCl)CCCl` (configuration not stated), the T/C reads like this: under setting [3], 114 % of control; (dose: 3.12 mg/kg/injection, schedule: Q01DX009 (ip), vehicle: saline) 105 % of control; under setting [9], 201 % of control.

For the origin of these results see PubChem BioAssay AID328 (DTP/NCI, 2004).
